Data reported in US8753841B2, “Enzyme that catalyzes a peptide-forming reaction from a carboxy component and an amine component, microbe producing the same, and a method of producing a dipeptide using the enzyme or microbe” (Ajinomoto Co., Inc., priority 2002, dated 2014).
Non-standard residues stand in square brackets, D forms with d. No end group written: not given here. *: point of attachment. Boc = CC(C)(C)OC(=O)*

Columns and labels:
Type in all cases: biochemical
[1] = tested on: peptide-forming enzyme from Empedobacter brevis strain FERM BP-8113; experiment: Substrate specificity of enzyme (peptide production from carboxy and amine components)
[2] = tested on: peptide-forming enzyme from Empedobacter brevis strain FERM BP-8113; experiment: as above; set-up: key to Formed peptide (mM): +: those peptides for which production was confirmed but which were unable to be quantified due to the absence of a standard; a trace amount; settings: L-amino acid methyl ester hydrochloride 100 mM, pH 9.0, 25° C., 3 hours
Excerpt: Ester specificity was examined in the case of using L-amino acid ester for the carboxy component. […] HCl represents hydrochloride in Table 4.
Peptide production was examined in the case of using L-alanine methyl ester for the carboxy component and using various L-amino acids for the amine component.
Peptide production was examined in the case of using various types of L-amino acid methyl esters for the carboxy component and using L-glutamine for the amine component. […] Furthermore, Tween-80 was added to the reaction system to a final concentration of 0.1% in the case of using L-Trp-OMe and L-Tyr-OMe.

[3] = tested on: enzyme derived from Sphingobacterium sp. strain FERM BP-8124; experiment: Substrate specificity of enzyme derived from Sphingobacterium sp.; settings: carboxy component 100 mM, 0.33 units enzyme, pH 9.0, 25° C., 1.5 hours
[4] = carboxy component 40 mM, amine component 40 mM, 0.1 unit enzyme, 25° C., reaction time 3 hr
[5] = carboxy component 100 mM, amine component 150 mM, 0.1 unit enzyme, 25° C., reaction time 3 hr
[6] = Table 15-3, amine component 150 mM
[7] = Table 15-4, amine component 150 mM
[8] = L-alanine methyl ester hydrochloride 100 mM, L-amino acid amide hydrochloride 150 mM, pH 9.0, 25° C., 3 hours
[9] = β-amino acid ester or β-amino acid, carboxy component 100 mM, amine component 150 mM, pH 9.0, 25° C., 3 hours
[10] = oligopeptide production, amine component 150 mM
[11] = carboxy component 100 mM, peptide amine component 150 mM, pH 9.0, 25° C., 3 hours
[12] = Table 15-1, amine component 150 mM
[13] = L or D amino acid methyl ester hydrochloride 100 mM, L or D amino acid 150 mM, pH 9.0, 25° C., 3 hours

For H-p-NO2-Phe-H-Gln-OH, which “Produced peptide” value [1, 4] is on record?
The value was 1.1 mM.

Which “Formed peptide (mM)” value ([2]; 150 mM L-glutamine) does the source give for L-His-L-Gln here?
The value was “+”.

How did the “Produced peptide” value [1, 5] turn out when H—N—Me-Ala-H-Gln-OH was run?
Its value is 0.5 mM.

How did the “Produced peptide” value [3, 6] turn out when L-Thr-L-Val was run?
Its value is 1.3 mM.

What about the “Formed peptide” value ([2]; L-amino acid 150 mM) of the same compound?
Its value is 0.7 mM.

What does the source list for L-Ala-L-Ala-NH2?
Produced peptide [3, 7]: 9.2 mM; Formed peptide [1, 8]: 8.3 mM

How did the “Formed peptide” value ([2]; L-amino acid 150 mM) turn out when L-Trp-L-Met was run?
Its value is 4.1 mM.

For L-Thr-L-Ser, which “Formed peptide” value ([2]; L-amino acid 150 mM) is on record?
Its value is 58.2 mM.

What does the source list for `CNC(=O)CN` [Gly-methylamine]?
Produced peptide [3, 7]: 1.0 mM; Formed peptide ([1]; amino acid methyl ester hydrochloride 100 mM, methylamine 150 mM, pH 9.0, 25° C., 3 hours): 1.1 mM

β-Ala-L-Ser was tested. Which “Formed peptide” value [1, 9] did it give?
The value was 3.2 mM.

What does the source list for L-Ile-L-Phe?
Produced peptide [3, 6]: 1.5 mM; Formed peptide ([2]; L-amino acid 150 mM): 5.2 mM

Which results are given for Gly-L-Ala-L-Tyr?
Produced peptide [3, 10]: 0.6 mM; Produced peptide [1, 11]: 1.7 mM

Ala-β-Ala was tested. Which “Formed peptide” value [1, 9] did it give?
The value was 7.7 mM.

With Thr-β-Phe as the compound, how does the “Formed peptide” value [1, 9] read?
Its value is 1.4 mM.

How did the “Formed peptide” value [1, 9] turn out when β-Ala-L-Gln was run?
The value was 0.6 mM.

How did the “Produced peptide” value [3, 12] turn out when D-Ala-D-Ser was run?
Its value is 5.5 mM.

And the “Formed peptide” value [1, 13]?
Its value is 0.2 mM.

With L-Leu-L-Gln as the compound, how does the “Formed peptide (mM)” value ([2]; 150 mM L-glutamine) read?
Its value is “+”.

For L-Ala-L-Ile, which “Produced peptide” value [3, 12] is on record?
The value was 24.7 mM.

L-Arg-L-Gln was tested. Which “Produced peptide” value ([3]; Table 15-2, L-Gln 150 mM) did it give?
The value was 17.2 mM.

What about the “Formed peptide” value ([2]; 150 mM L-glutamine) of the same compound?
The value was 7.1 mM.

With L-Ala-L-Val as the compound, how does the “Produced peptide” value [3, 12] read?
Its value is 10.9 mM.

Which “Produced peptide” value [3, 12] does the source give for L-Ala-L-Glu here?
Its value is 39.1 mM.

For L-Ala-L-Asp, which “Produced peptide” value [3, 12] is on record?
Its value is 2.3 mM.

Which “Produced peptide” value [3, 6] does the source give for L-Arg-L-Ser here?
Its value is 2.2 mM.

What about the “Formed peptide” value ([2]; L-amino acid 150 mM) of the same compound?
Its value is 3.6 mM.

How did the “Produced peptide” value [3, 12] turn out when L-Ala-L-Thr was run?
Its value is 47.3 mM.

For L-Ala-L-Phe-L-Ala, which “Produced peptide” value [3, 10] is on record?
The value was 24.8 mM.

What about the “Produced peptide” value [1, 11] of the same compound?
The value was 49.7 mM.

What does the source list for Gly-L-Ser?
Produced peptide [3, 6]: 53.8 mM; Formed peptide ([2]; L-amino acid 150 mM): 44.2 mM

How did the “Formed peptide” value [1, 13] turn out when D-Val-D-Ser was run?
The value was 0.5 mM.

What does the source list for L-Ala-L-Ala-L-Ala?
Produced peptide [3, 10]: 41.1 mM; Produced peptide [1, 11]: 57.5 mM

With L-Ala-L-Phe-Gly as the compound, how does the “Produced peptide” value [3, 10] read?
The value was 34.0 mM.

And the “Produced peptide” value [1, 11]?
Its value is 43.7 mM.

How did the “Formed peptide” value [1, 9] turn out when Ala-β-Phe was run?
Its value is 1.4 mM.

With L-Lys-L-Gln as the compound, how does the “Formed peptide (mM)” value ([2]; 150 mM L-glutamine) read?
Its value is “+”.

L-Met-D-Ser was tested. Which “Formed peptide” value [1, 13] did it give?
The value was 1.9 mM.

For Gly-Phe-Met, which “Produced peptide” value ([1]; oligopeptide production, amount of enzyme 1.0 unit, pH 9.0, 25° C., 3 hours) is on record?
Its value is 13.3 mM.

For L-Ala-L-Ala-L-Ala-L-Ala, which “Produced peptide” value [3, 10] is on record?
Its value is 30.1 mM.

What about the “Produced peptide” value [1, 11] of the same compound?
The value was 44.5 mM.

Which “Formed peptide” value ([2]; L-amino acid 150 mM) does the source give for L-His-L-Met here?
The value was 6.5 mM.

H-Ala-p-F-Phe-OH was tested. Which “Produced peptide” value ([1]; carboxy component 50 mM, amine component 50 mM, 0.1 unit enzyme, 25° C., reaction time 3 hr) did it give?
The value was 21.9 mM.

With D-Ser-L-Ser as the compound, how does the “Formed peptide” value [1, 13] read?
The value was 3.3 mM.

Which “Formed peptide” value [1, 9] does the source give for Thr-β-Ala here?
Its value is 3.2 mM.

For D-Ala-L-Gln, which “Formed peptide” value [1, 13] is on record?
The value was 69.3 mM.

Which “Produced peptide” value [1, 4] does the source give for H-Ala-p-NO2-Phe-OH here?
The value was 27.5 mM.

For L-Ala-L-Ala-L-Gln, which “Produced peptide” value [1, 11] is on record?
The value was 15.2 mM.

D-Met-L-Ser was tested. Which “Formed peptide” value [1, 13] did it give?
Its value is 5.1 mM.

L-Ser-D-Ser was tested. Which “Formed peptide” value [1, 13] did it give?
The value was 16.2 mM.

How did the “Produced peptide” value [1, 4] turn out when H-Ala-Cl—F-Phe-OH was run?
Its value is 20.8 mM.

Which “Produced peptide” value [3, 7] does the source give for L-Ala-L-Phe-NH2 here?
Its value is 27.1 mM.

What about the “Formed peptide” value [1, 8] of the same compound?
The value was 12.2 mM.

Which “Produced peptide” value [3, 12] does the source give for L-Ala-D-Ser here?
Its value is 3.3 mM.

And the “Formed peptide” value [1, 13]?
The value was 5.4 mM.

With D-Ala-L-Ser as the compound, how does the “Produced peptide” value [3, 12] read?
Its value is 24.1 mM.

What about the “Formed peptide” value [1, 13] of the same compound?
The value was 20.3 mM.

With D-Thr-D-Ser as the compound, how does the “Formed peptide” value [1, 13] read?
Its value is 1.1 mM.

How did the “Formed peptide (mM)” value ([2]; 150 mM L-glutamine) turn out when β-L-Asp-L-Gln was run?
The value was “tr”.

With L-Ala-Gly-Gly as the compound, how does the “Produced peptide” value [3, 10] read?
Its value is 33.7 mM.

And the “Produced peptide” value [1, 11]?
The value was 41.7 mM.

For Gly-β-Ala, which “Formed peptide” value [1, 9] is on record?
The value was 2.2 mM.

With [dA]-Gly-Phe as the compound, how does the “Produced peptide (mM)” value ([1]; oligopeptide production, amount of enzyme 0.1 unit, pH 9.0, 25° C., 3 hours) read?
The value was “Tr”.

With Gly-β-Phe as the compound, how does the “Formed peptide” value [1, 9] read?
Its value is 0.4 mM.

For L-Ala-L-Ala, which “Produced peptide” value [3, 12] is on record?
The value was 13.1 mM.

What about the “Produced peptide” value [3, 10] of the same compound?
The value was 25.6 mM.

What about the “Produced peptide” value [1, 11] of the same compound?
Its value is 28.7 mM.

With L-Ala-L-Leu-L-Ala as the compound, how does the “Produced peptide” value [3, 10] read?
The value was 40.7 mM.

And the “Produced peptide” value [1, 11]?
Its value is 48.3 mM.

For L-Ala-Gly-NH2, which “Produced peptide” value [3, 7] is on record?
The value was 15.1 mM.

And the “Formed peptide” value [1, 8]?
The value was 7.4 mM.

Which “Produced peptide” value [1, 5] does the source give for H-Aib-Phe-OH here?
Its value is 17.2 mM.

For H-Ala-Lys(Boc)-OH, which “Produced peptide” value ([1]; carboxy component 100 mM, amine component 150 mM, 0.1 unit enzyme, 25° C., reaction time 2 hr) is on record?
The value was 51.0 mM.
